This note sets out measurements from US6451854B1, “α-amino acid phenyl ester derivatives” (Akzo Nobel N.V., priority 1998, dated 2002).

In one assay the test system is mice. Put plainly: hypnotic activity: loss of righting reflex after intravenous administration in mice. The assay is classed as in vivo. To be noted: dose causing loss of righting reflex for minimum 30 seconds in 50% of mice, intravenous injection over 10 seconds; for ED50: Mus musculus, iv, read-out: HD50 (the source's name). How it is done: The hypnotic potency of the α-amino acid phenyl ester derivatives of the invention was determined upon their intravenous administration in mice. The dose required to cause a loss of righting reflex for a minimum period of 30 seconds in 50% of treated mice after intravenous injection over 10 seconds was determined. This dose is termed the HD50 (hypnotic dose50) and is expressed in μmol.kg^−1.

For a further assay, the target named is GABAA receptors. Nature of the assay: inhibition of [35S]-TBPS binding to rat whole brain membranes. To be noted: concentration required to inhibit 50% of [35S]-TBPS binding. An excerpt:
γ-Aminobutyric acid (GABA) is the major inhibitory neurotransmitter within the central nervous system and it is probable that compounds potentiating the effects of GABA at GABAA receptors will induce anaesthesia (S. A. Zimmerman, M. V. Jones and N. L. Harrison, J. Pharmacol. Exp. Therap. 1994, 270, 987-991; N. P. Franks and W. R. Lieb, Nature 1994, 367, 607-614). Indeed there is compelling evidence that many hypnotics exert their biological activity via modulation of GABAA receptors, including steroids, barbiturates, benzodiazepines and propofol (D. L. Tanelian, P. Kosek, I. Mody and M. B. Maclver, Anesthesiology 1993, 78, 757-776).
The in vitro effect of the compounds of the invention at GABAA receptors was assessed through determination of their ability to inhibit [^35S]-TBPS ([^35S]-tert-butyl bicyclophosphorothionate) binding to rat whole brain membranes. The concentration of α-amino acid phenyl ester derivative required to inhibit 50% of binding of [^35S]-TBPS was determined. These in vitro experiments were carried out as described in detail by Anderson et al., J.Med.Chem. 1997, 40, 1668-1681.

Counter-ions that a name gives are not always drawn.

In the case of `CCCCC(C(=O)Oc1c(OC)cccc1OC)N(CCOC)CCOC.Cl` (stereo not drawn) [Example 7ah, ξ-2-[N-bis(2-methoxyethyl)amino]hexanoic acid, 2,6-dimethoxyphenyl ester hydrochloride (1:1) salt], the HD50 in the assay on mice was found to be 8 µmol/kg.

As for `COCCN(C)C(C)C(=O)Oc1c(OC)cccc1OC.Cl` (stereo not drawn) [Example 7p, 2-[N-methyl-(2-methoxy)ethylamino]propionic acid, 2,6-dimethoxyphenyl ester hydrochloride (1:1) salt], the HD50 with mice stood at 72 µmol/kg. Besides, the IC50 on GABAA receptors is around 100 µM.

Turning to `CCC(C(=O)Oc1c(OC)cccc1OC)N(C)Cc1ccccc1` (racemic) [Example 7k, (±)-2-[N-methylbenzylamino]butyric acid, 2,6-dimethoxyphenyl ester hydrochloride (1:1) salt], in the assay on mice, the ED50 turned out to be 40 µmol/kg. Moreover, the IC50 on GABAA receptors came out at 13 µM.

In the case of `CCOc1cccc(OCC)c1OC(=O)C(CC)N(CCOC)CCOC` (racemic) [Example 7n, (±)-2-[N-bis(2-methoxyethyl)amino]butyric acid, 2,6-diethoxyphenyl ester hydrochloride (1:1) salt], the ED50 in the assay on mice was 27 µmol/kg. Also, the IC50 at GABAA receptors stood at 20 µM.

The compound `COCCN(C)C(CC(C)C)C(=O)Oc1c(OC)cc(C)cc1OC.Cl` (racemic) [Example 7ak, (±)-2-[N-(2-methoxyethyl)-N-methylamino]-4-methylpentanoic acid, 2,6-dimethoxy-4-methylphenylester hydrochloride (1:1) salt] showed an HD50 in the assay with mice of 28 µmol/kg.

As to `CCC(C(=O)Oc1c(OC)cc(C)cc1OC)N(CCOC)CCOC` (racemic) [Example 7b, (±)-2-[N-bis(2-methoxyethyl)amino]butyric acid, 2,6-dimethoxy-4-methylphenyl ester hydrochloride (1:1) salt], in the assay on mice, the ED50 came out at 22 µmol/kg. Also, on GABAA receptors, the IC50 was determined as 18 µM.

In turn, `CCCCC(C(=O)Oc1c(OC)cccc1OC)N(CCOC)CCOC.Cl` (racemic) [Example 7ad, (±)-2-[N-bis(2-methoxyethyl)amino]hexanoic acid, 2,6-dimethoxyphenyl ester hydrochloride (1:1) salt] came in with an HD50 with mice below 12 µmol/kg.

`CCOCCN(CCOCC)C(C)C(=O)Oc1c(OC)cccc1OC` (single isomer, unassigned; (+)) [Example 7w, (+)-2-[N-bis(2-ethoxyethyl)amino]propionic acid, 2,6-dimethoxyphenyl ester hydrochloride (1:1) salt]: the HD50 with mice was 35 µmol/kg. The IC50 on GABAA receptors is around 100 µM.

In the assay with mice, “(±)-2-[N-bis(2-methoxyethyl amino]-3-methylbutyric acid, 2,6-dimethoxy-4-methylphenylester hydrochloride (1:1) salt [Example 7al]” registered an HD50 of 44 µmol/kg.

Consider `CCCCC(C(=O)Oc1c(OC)cc(C)cc1OC)N(CCOC)CCOC.Cl` (racemic) [Example 7ag, (±)-2-[N-bis(2-methoxyethyl)amino]hexanoic acid, 2,6-dimethoxy-4-methylphenyl ester hydrochloride (1:1) salt], for which, in the assay with mice, the HD50 was determined as 34 µmol/kg.

For `CCN(CC)C(C)C(=O)Oc1c(OC)cc(C)cc1OC` (racemic) [Example 7j, (±)-2-[diethylamino]propionic acid, 2,6-dimethoxy-4-methylphenyl ester hydrochloride (1:1) salt], the ED50 in the assay with mice came to 43 µmol/kg. For the same compound, the IC50 on GABAA receptors was below 50 µM.

For the compound `CC[C@H](C(=O)Oc1c(OC)cc(C)cc1OC)N(CCOC)CCOC` [Example 7a, R-(+)-2-[N-bis(2-methoxyethyl)amino]butyric acid, 2,6-dimethoxy-4-methylphenyl ester hydrochloride (1:1) salt], in the assay on mice, the ED50 turned out to be 21 µmol/kg. Besides, on GABAA receptors, the IC50 was 22 µM.

Take `COc1cc(C)cc(OC)c1OC(=O)[C@@H](C)N(C)Cc1ccccc1` [Example 7h, R-(+)-2-[N-methylbenzylamino]propionic acid, 2,6-dimethoxy-4-methylphenyl ester hydrochloride (1:1) salt]: the ED50 in the assay with mice came to 56 µmol/kg. Besides, at GABAA receptors, the IC50 was 27 µM.

Regarding `COc1cc(C)cc(OC)c1OC(=O)C(C)N(C)Cc1ccccc1` (racemic) [Example 7g, (±)-2-[N-methylbenzylamino]propionic acid, 2,6-dimethoxy-4-methylphenyl ester hydrochloride (1:1) salt], in the assay on mice, the ED50 amounted to 45 µmol/kg. Moreover, the IC50 at GABAA receptors stood at 22 µM.

Regarding `CCC(C(=O)Oc1c(OC)cccc1OC)N(CCOC)CCOC` (racemic) [Example 7c, (±)-2-[N-bis(2-methoxyethyl)amino]butyric acid, 2,6-dimethoxyphenyl ester hydrochloride (1:1) salt], the ED50 with mice was found to be 19 µmol/kg. Also, on GABAA receptors, the IC50 was determined as 10 µM.

As to `CCOCCN(CCOCC)[C@@H](CC)C(=O)Oc1c(OC)cccc1OC` [Example 7aa, S-(−)-2-[N-bis(2-ethoxyethyl)amino]butyric acid, 2,6-dimethoxyphenyl ester hydrochloride (1:1) salt], in the assay on mice, the ED50 was found to be 22 µmol/kg. In addition, the IC50 at GABAA receptors is 11 µM.

`CCOCCN(CCOCC)C(CC)C(=O)Oc1c(OC)cccc1OC` (racemic) [Example 7l, (±)-2-[N-bis(2-ethoxyethyl)amino]butyric acid, 2,6-dimethoxyphenyl ester hydrochloride (1:1) salt]: the IC50 on GABAA receptors is around 100 µM.

As to `CCOCCN(CCOCC)C(C)C(=O)Oc1c(OC)cccc1OC` (single isomer, unassigned; (-)) [Example 7x, (−)-2-[N-bis(2-ethoxyethyl)amino]propionic acid, 2,6-dimethoxyphenyl ester hydrochloride (1:1) salt], the HD50 in the assay on mice was determined as 46 µmol/kg. Also, at GABAA receptors, the IC50 was below 100 µM.

As to `CCCC(C(=O)Oc1c(OC)cc(C)cc1OC)N(CCOC)CCOC.Cl` (racemic) [Example 7af, (±)-2-[N-bis(2-methoxyethyl)amino]pentanoic acid, 2,6-dimethoxy-4-methylphenyl ester hydrochloride (1:1) salt], the HD50 in the assay on mice is 34 µmol/kg.

With `COc1cccc(OC)c1OC(=O)C(C)N(C)CCc1ccccc1` (stereo not drawn) [Example 7m, 2-[N-methylphenethylamino]propionic acid, 2,6-dimethoxyphenyl ester hydrochloride (1:1) salt], the ED50 in the assay on mice stood at 38 µmol/kg. Further, the IC50 at GABAA receptors stood at 59 µM.

Consider `CCCCC(C(=O)Oc1c(OC)cccc1OC)N(CCOC)CCOC.Cl` (stereo not drawn) [Example 7ai, ξ-2-[N-bis(2-methoxyethyl)amino]hexanoic acid, 2,6-dimethoxyphenyl ester hydrochloride (1:1) salt], for which, in the assay with mice, the HD50 worked out at 47 µmol/kg.

For `COCCN(CCOC)C(CC(C)C)C(=O)Oc1c(OC)cc(C)cc1OC.Cl` (racemic) [Example 7aj, (±)-2-[N-bis(2-methoxyethyl)amino]4-methylpentanoic acid, 2,6-dimethoxy-4-methylphenylester hydrochloride (1:1) salt], the HD50 entry in the assay on mice is given as “convulsant”.

Compound `CCC(C(=O)Oc1c(OC)cccc1OC)N(CC(C)OC)CC(C)OC.Cl` (racemic) [Example 7ae, (±)-2-[N-bis(2-methoxypropyl)amino]butyric acid, 2,6-dimethoxyphenyl ester hydrochloride (1:1) salt] registered an HD50 in the assay on mice of 27 µmol/kg.
